EP3248604A1, “AGENTS FOR MODULATION OF WNT-TCF SIGNALLING AND USES THEREOF” (UNIVERSITE DE GENEVE, priority 2016, dated 2017)

Key:
CC14 cells [1] = assay: Epithelial island morphology of CC14 cells; format: cell-based, human; conditions: 1 µM, 24h
Description: Similar phenotypes were only observed at 10 µM of CAP1 or 5 µM of CAP3. CAP2 was thus chosen for further detailed analyses.

DLD1 xenografts = assay: DLD1 colon cancer xenograft in Nude mice; format: in vivo
Description: 0.5x10^6 DLD1/ GFP^+ (cells expressing green fluorescent protein) cells were injected per flanks into 6 week-old female Nude mice (Janvier Labs). CAP2 (10mg/kg) complexed with cyclodextrine as vehicle, or vehicle alone, were injected daily intra-peritoneally (IP) once the tumors were palpable (25-50 mm^3). Tumor volumes were measured every other day with a caliper. Animals were sacrificed at the end of experiment and tumors harvested.
CAP2 from four independent batches supplied by Analyticon Discovery was dissolved in DMSO and suspended in 45% beta-cyclodextrin. 45% beta-cyclodextrin was used as vehicle for controls. 150µl of drug or vehicle alone was administered per mouse daily.
GFP^+ DLD1-engrafted mice were treated with cyclodextrin-conjugated CAP2 at 10mg/kg via IP […] starting at the time when tumors were palpable. […] Analyses of gene expression using human-specific primers in treated tumors (using the excised area where remnant DLD-GFP^+ cells could be found) confirmed the repression of human AXIN2, ASCL2 and LGR5 (Table 11).

DLD1 cells = assay: Clonal spheroid assay, DLD1; format: cell-based, human; conditions: DLD1 pretreated in 2D; normalized over DMSO controls (Figure 11A)
Description: (§1) Cells were treated with different concentrations of compounds for 16h in 2D adherent culture, washed, harvested and plated in suspension with serum-free DMEM-F12 media with B27 supplement (1:50 dilution) at 1 cell/well in 96-well format in triplicates. Plated cells were monitored to ensure the presence of single cells in each well and spheroids counted and photographed after 10 days for each round.
(§2) To directly test for a long-lasting repression of WNT-TCF targets by CAP2 clonogenic properties of cancer stem cells were tested. DLD1 and LS174T cells were first treated with CAP2 in 2D culture in vitro followed by removal of the drug, washing with PBS, and plating under non-adherent 3D conditions for clonal spheroid growth in the absence of the drug. After primary spheroid growth, the spheroids were dissociated and replated as single cells for secondary and subsequent clonogenic spheroid formation, also in the absence of the compound of the invention. As negative control DMSO-treatment was used.

Ls174T cells = assay: Clonal spheroid assay, Ls174T; format: cell-based, human; conditions: Ls174T pretreated at 5µM; after three passes
Description: as §1, §2

CC14 cells [2] = assay: Live imaging cell proliferation (growth curves); format: cell-based, human; conditions: 150 nM, vs DMSO
Description: Primary colon cells CC14 were cultured in DMEM-F12 with 10% FBS under standard in vitro conditions.
Live imaging and quantification of total cell mass was performed using a Widefield plate reader, ImageXpress XL with an inbuilt temperature and CO2 controller, and a CoolSnap HQ camera (Photometrics).

CYCLIN D1 = assay: Western blot of CYCLIN D1 in DLD1 cells; format: cell-based, human; conditions: 5 µM CAP2 (batch 3), vs DMSO
Description: Western blot performed according to standard methods.
The effect of CAP2 on WNT-TCF signaling the levels of direct TCF target CYCLIN D1 were measured since it is useful to measure TCF response (Melotti et al., 2014, sura).

`CC1=C(C)C(=O)O[C@@H]([C@](C)(O)[C@]2(O)CC[C@@]3(O)[C@@H]4CC=C5C=CCC(=O)[C@]5(C)[C@H]4CC[C@]23C)C1` [CAP2] was tested, and the epithelial island morphology (CC14 cells [1]) was “totally disrupted”, the side effects (DLD1 xenografts; DLD1 xenograft, Nude mice, 10mg/kg IP) was “without any visible side effects” and the tumor growth (DLD1 xenografts; DLD1 xenograft, Nude mice, cyclodextrin-conjugated CAP2 10mg/kg IP, vs cyclodextrin carrier) was “blockade of tumor growth”. For the same compound, the “number of regressed tumors that re-grew” value (DLD1 xenografts; four DLD1 regressed tumors, 90 days following drug removal) was “one”, the “primary 3D clonal spheroids” value (DLD1 cells) was “dose-dependent decrease in primary spheroids” and the “clonogenic cancer stem cells in serial spheroid assays” value (Ls174T cells) was “exhaustion of clonogenic cancer stem cells”. For the same compound, the “effect on cell growth (growth curves)” value (CC14 cells [2]) was “growth repressive effect” and the “level of CYCLIN D1 (Western blot)” value (CYCLIN D1) was “decrease in the level of TCF target CYCLIN D1”.
